Experimental findings from ChEMBL document CHEMBL1201862, “PubChem BioAssay data set” (2004) are described below.

Activity calls are given as the source filed them.

Experiment [1] in a line: IC50 of Artemis nuclease activity blockers – biochemical, fluorescence intensity, dose response (AID 720701).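 Further: Artemis endonuclease enzyme.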 The experiment is classed as functional.
Experiment [2] is described as follows: Dd2 malaria parasite growth inhibition potency – SYBR Green, dry powder samples, dose response (AID 1159566).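 Further: potency for growth inhibition with lower SYBR green DNA signal.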 The class given is functional, cell-based.
A short description of experiment [3]: growth inhibition of PfATP4-mutant resistant parasites – NITD609-resistant line, SYBR Green, dry powder, dose response (AID 1159571).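 Further: parasites synchronized at ring stage by sorbitol before testing.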 The class given is functional, cell-based.
The nature of experiment [4]: P. falciparum Dd2 growth inhibitors, dose response, SYBR Green, cherry-picked samples (AID 1159567). The experiment is classed as functional, cell-based.
Experiment [5] is described as follows: growth inhibition of yeast DHODH-expressing 3D7 parasites – SYBR Green, dry powder samples, dose response (AID 1159570).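 Further: parasite growth measured after 72 hours of compound exposure.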 The class given is functional, cell-based.
Experiment [6] is described as follows: HGIII-sPLA2 enzyme inhibition potency – biochemical, QFRET, IC50, dose response (AID 743457).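 Further: green fluorescence rise as the enzyme cleaves BODIPY PC-A2 in liposomes.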
Experiment [7] in a line: IGROV1 cell killing – plate reader, dry powder samples, PAX8 inhibitor project, dose response (AID 743043). The class given is functional, cell-based. The conditions noted are these: IGROV-1.
Experiment [8] can be described thus: OVCAR8 cell viability loss – plate reader, dry powder samples, PAX8 project, dose response (AID 743197). The class given is functional, cell-based. The conditions noted are these: OVCAR-8.
Experiment [9] in a line: OVCAR-3 cell viability loss – plate reader, dry powder samples, PAX8 inhibitor project, dose response (AID 743044). The class given is functional, cell-based.
Experiment [10] has as its target Paired box protein Pax-8 (Homo sapiens, UniProt Q06710). The experiment can be described thus: PAX8 transcriptional activity inhibition in RMG-I – RMG-I cells, luciferase, cherry-pick, dose response (AID 687027).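 Further: luciferase reporter driven by Pax8 target thyroperoxidase promoter measured by SteadyGlo luminescence.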 The class given is functional, cell-based.
Experiment [11] relates to Streptococcus. Put plainly: GAS UMAA2166 growth inhibition – luminescence, BacTiterGlo, counter-screen for streptokinase expression inhibitor project, dose response (AID 1915).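 Further: potency for reduction of bacterial viability or growth.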 The class given is functional, organism-based. Background: The purpose of a counterscreen is to sort out artefacts and off-target activity.
In experiment [12] the test system is Streptococcus sp. 'group A'. The experiment can be described thus: Streptococcus pyogenes SK(-)GAS viability under kanamycin – luminescence, BacTiterGlo, confirmation, counter-screen for streptokinase expression inhibitor project, dose response (AID 1900). The experiment is classed as functional, organism-based.
Experiment [13] deals with BJ. Put plainly: BJ-TERT fibroblast viability loss – cell-based, RAS-independent, luminescence, dose response (AID 1933). As to conditions: Homo sapiens. The experiment is classed as functional.
For experiment [14], the system named is BJ. The experiment can be described thus: BJ-TERT-LT-ST fibroblast viability loss – cell-based, RAS-independent, luminescence, dose response (AID 1935).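 Further: BJ fibroblasts immortalized with TERT plus LT and ST oncogenes.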 The class given is functional. As to conditions: Homo sapiens.
The test system of experiment [15] is BJ. The experiment can be described thus: cells. The experiment is classed as functional, cell-based. The conditions noted are these: Homo sapiens.
Experiment [16] in a line: DRD fibroblast viability loss – cell-based, non-viral oncogenic, luminescence, dose response (AID 1934). The class given is functional. As to conditions: Homo sapiens.
A short description of experiment [17]: general mammalian cell viability loss – inhibitor set, cherry-pick, set 2, cytotoxicity control for miR-122 modulator project, dose response (AID 720697). The experiment is classed as functional, cell-based.
A short description of experiment [18]: cells. The experiment is classed as functional, cell-based.
The nature of experiment [19]: cells. The class given is functional, cell-based. The source holds these as a separate data set.
Experiment [20] concerns the target T1, Trace amine-associated receptor 1 (Homo sapiens, UniProt Q96RJ0).
T1 sequence (Q96RJ0 whole entry): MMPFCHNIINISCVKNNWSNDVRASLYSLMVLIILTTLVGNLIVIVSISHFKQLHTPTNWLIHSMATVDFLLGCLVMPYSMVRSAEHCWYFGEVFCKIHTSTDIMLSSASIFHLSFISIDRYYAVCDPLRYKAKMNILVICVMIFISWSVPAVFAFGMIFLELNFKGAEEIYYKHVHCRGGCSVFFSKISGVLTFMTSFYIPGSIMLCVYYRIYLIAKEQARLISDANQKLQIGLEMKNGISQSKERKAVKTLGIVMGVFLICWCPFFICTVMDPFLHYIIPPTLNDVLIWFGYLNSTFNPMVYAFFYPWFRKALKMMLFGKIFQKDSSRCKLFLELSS
Put plainly: Counterscreen for agonists of the human trace amine associated receptor 1 (hTAAR1): Fluorescence-based cell-based high throughput dose response assay to identify hTAAR1 agonist that also desensitize TAAR1 receptor response. The experiment is classed as functional.

The target of experiment [21] is T1, Trace amine-associated receptor 1. Put plainly: Fluorescence-based cell-based high throughput dose response assay to identify agonists of the human trace amine associated receptor 1 (TAAR1). The experiment is classed as functional.

Chain of Paired box protein Pax-8 (Q06710 whole entry): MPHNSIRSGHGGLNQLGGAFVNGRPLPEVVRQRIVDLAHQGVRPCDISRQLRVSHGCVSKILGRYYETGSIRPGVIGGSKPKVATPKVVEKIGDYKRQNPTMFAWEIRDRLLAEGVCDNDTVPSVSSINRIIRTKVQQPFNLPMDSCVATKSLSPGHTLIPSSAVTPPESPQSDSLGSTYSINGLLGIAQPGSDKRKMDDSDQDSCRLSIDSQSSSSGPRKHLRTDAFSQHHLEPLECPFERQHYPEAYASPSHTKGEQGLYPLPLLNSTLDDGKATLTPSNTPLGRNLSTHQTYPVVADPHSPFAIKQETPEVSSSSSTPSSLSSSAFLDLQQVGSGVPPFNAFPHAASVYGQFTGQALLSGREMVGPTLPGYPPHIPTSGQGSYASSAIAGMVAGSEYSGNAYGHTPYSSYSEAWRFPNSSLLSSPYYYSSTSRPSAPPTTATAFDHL

`CC(=O)N(/N=C1\Sc2ccccc2C1=O)c1ccccc1`: the half-inhibitory concentration (IC50) – broadly, the concentration that gives 50% inhibition – in experiment [1] was 6.46 µM (active).

For the compound `C[C@H]1CN([C@@H](C)CO)S(=O)(=O)c2ccc(-c3ccc(C#N)cc3)cc2O[C@H]1CN(C)CC1CC1`, the AC50 (in general, the concentration giving half of the maximal activity seen) was 1.76 µM (active) in experiment [2], 3.08 µM (active) in [3], 2.27 µM (active) in [4] and 2.79 µM (active) in [5].

For `O=C(NNC(=S)Nc1ccccc1)c1ccc2ncccc2c1`, the IC50 in experiment [6] is > 122 µM (inactive).

For the compound `COc1cccc(-c2ccc3c(c2)[C@@H]2[C@@H](CCN2S(=O)(=O)c2ccccc2OC)[C@H](CO)N3C)c1`, the AC50 was 50.6 µM (active) in experiment [7], 27.8 µM (active) in [8], 18 µM (active) in experiment [9] and 10.3 µM (active) in experiment [10].

`Oc1ccc2ccccc2c1/C=N/c1nc2c(s1)CCCC2`: the IC50 in experiment [1] was > 20 µM (inactive).

With `O=C(Cc1cccs1)NNC(=S)NCc1ccc(Cl)cc1`, the IC50 in experiment [6] was > 122 µM (inactive).

On to `COc1cc(C(=O)NNC(=S)NC(=O)c2ccc3c(c2)OCO3)cc(OC)c1OC`, for which the IC50 in experiment [6] is > 122 µM (inactive). Moreover, the EC50 (usually the midpoint of the concentration-response curve) in [11] was 3.37 µM (active); in experiment [12], 1.36 µM (active).

With `COc1cccc(-c2cn3nc4c(nc3n2)CCCC4)c1`, the IC50 in [1] is > 20 µM (inactive). Further, the concentration for a half-maximal effect (EC50) in [13] was 16.2 µM (active); in [14], > 150 µM (not active); in experiment [15], 21.6 µM (active); in experiment [16], 12.9 µM (active).

`CN1C(=O)c2cc(NC(=O)c3cccs3)ccc2OC[C@H]2O[C@@H](CC(=O)NCCN3CCCCC3)CC[C@@H]21`: in experiment [17], the AC50 is 4.24 µM (active).

Turning to `CC1(C)CC(=O)C(/C=N\CCc2ccc(O)cc2)=C(O)C1`, the EC50 in [18] is > 29.9 µM (inactive); in [21] it was 1.84 µM (active). The IC50 in experiment [19] was > 29.9 µM (inactive); in experiment [20] it was 8.81 µM (active).
